Literature values as cited in patent US20100113583A1, “COMBINATION THERAPIES FOR THE TREATMENT OF OBESITY” (priority 2008, published 2010).

How the values were obtained:
[1] = for weight loss of body weight for drug compared with placebo: literature studies

Row | Structure (SMILES) | weight loss of body weight for drug compared with placebo [1] | clinically significant side effect / limitation of clinical use | efficacy in clinical use ([1]; clinical use as weight loss drug)
1 | CCCCCCCCCCC[C@@H](C[C@@H]1OC(=O)[C@H]1CCCCCC)OC(=O)[C@H](CC(C)C)NC=O [orlistat] | about 5% | GI side effects | 
2 | CCN[C@@H](C)Cc1cccc(C(F)(F)F)c1 [dexfenfluramine] | about 5% | suspected heart valvulopathy | 
3 | CC(C)(N)Cc1ccccc1 [phentermine] | about 5% |  | limited efficacy
4 | CCNC(C)Cc1cccc(C(F)(F)F)c1 (stereo not drawn) [fenfluramine] |  | caused heart-valve complications | 
5 | CC(C)CC(N(C)C)C1(c2ccc(Cl)cc2)CCC1 (stereo not drawn) [sibutramine] | about 5% | can cause hypertension | 
